From PubChem BioAssay AID1259407 (Chemical Carcinogenesis Research Information System (CCRIS), 2018)
Calls of active or inactive are those of the source. The rule behind the calls is not given here.

Test system: CCRIS mutagenicity, Ames/micronucleus/aberration tests
Assay: CCRIS mutagenicity studies

For `ClCC1CO1` (stereo not drawn), the mutagenic call (End Point: IN VITRO CHROMOSOMAL ABERRATIONS, Test System: CHL CELLS, Metabolic Activation: NONE) was “active; positive (structural changes)”, the mutagenic call (End Point: IN VITRO CHROMOSOMAL ABERRATIONS, Test System: CHL CELLS, Metabolic Activation: RAT, LIVER, S-9, SODIUM PHENOBARBITAL AND 5,6-BENZOFLAVONE) was “active; positive (structural changes)” and the mutagenic call (Test System: AMES SALMONELLA TYPHIMURIUM, Strain/Indicator: G46, Metabolic Activation: NONE, Method: STANDARD PLATE) was “active; positive”. For the same compound, the mutagenic call (Test System: AMES SALMONELLA TYPHIMURIUM, Strain/Indicator: TA97, Metabolic Activation: NONE, Method: STANDARD PLATE) was “active; positive”, the mutagenic call (Test System: AMES SALMONELLA TYPHIMURIUM, Strain/Indicator: TA97, Metabolic Activation: RAT, LIVER, S-9, AROCLOR 1254, Method: STANDARD PLATE) was “inactive; negative” and the mutagenic call (Test System: AMES SALMONELLA TYPHIMURIUM, Strain/Indicator: TA98, Metabolic Activation: NONE, Method: STANDARD PLATE) was “inactive; negative”. The mutagenic call (Test System: AMES SALMONELLA TYPHIMURIUM, Strain/Indicator: TA98, Metabolic Activation: RAT LIVER S-9, PHENOBARBITAL AND BETA-NAPHTHOFLAVONE, Method: PREINCUBATION) was “active; positive”, the mutagenic call (Test System: AMES SALMONELLA TYPHIMURIUM, Strain/Indicator: TA98, Metabolic Activation: RAT, LIVER, S-9, AROCLOR 1254, Method: STANDARD PLATE) was “inactive; negative” and the mutagenic call (Test System: AMES SALMONELLA TYPHIMURIUM, Strain/Indicator: TA98, Metabolic Activation: S-9, Method: PREINCUBATION) was “inactive; negative”. The mutagenic call (Test System: AMES SALMONELLA TYPHIMURIUM, Strain/Indicator: TA100, Metabolic Activation: HAMSTER, LIVER, S-9, AROCLOR 1254 (10%), Method: PREINCUBATION) was “active; positive”, the mutagenic call (Test System: AMES SALMONELLA TYPHIMURIUM, Strain/Indicator: TA100, Metabolic Activation: RAT LIVER S-9, PHENOBARBITAL AND BETA-NAPHTHOFLAVONE, Method: PREINCUBATION) was “active; positive” and the mutagenic call (Test System: AMES SALMONELLA TYPHIMURIUM, Strain/Indicator: TA100, Metabolic Activation: RAT, LIVER, S-9, AROCLOR 1254 (10%), Method: PREINCUBATION) was “active; positive”. The mutagenic call (Test System: AMES SALMONELLA TYPHIMURIUM, Strain/Indicator: TA100, Metabolic Activation: S-9, Method: PREINCUBATION) was “active; positive”, the mutagenic call (Test System: AMES SALMONELLA TYPHIMURIUM, Strain/Indicator: TA104, Metabolic Activation: NONE, Method: STANDARD PLATE) was “active; positive” and the mutagenic call (Test System: AMES SALMONELLA TYPHIMURIUM, Strain/Indicator: TA1535, Metabolic Activation: HAMSTER, LIVER, S-9, AROCLOR 1254 (10%), Method: PREINCUBATION) was “active; positive”. For the same compound, the mutagenic call (Test System: AMES SALMONELLA TYPHIMURIUM, Strain/Indicator: TA1535, Metabolic Activation: NONE, Method: DESICCATOR) was “active; positive”, the mutagenic call (Test System: AMES SALMONELLA TYPHIMURIUM, Strain/Indicator: TA1535, Metabolic Activation: NONE, Method: STANDARD PLATE) was “active; positive” and the mutagenic call (Test System: AMES SALMONELLA TYPHIMURIUM, Strain/Indicator: TA1535, Metabolic Activation: RAT LIVER S-9, PHENOBARBITAL AND BETA-NAPHTHOFLAVONE, Method: PREINCUBATION) was “active; positive”. The mutagenic call (Test System: AMES SALMONELLA TYPHIMURIUM, Strain/Indicator: TA1535, Metabolic Activation: RAT, LIVER, S-9, AROCLOR 1254 (10%), Method: PREINCUBATION) was “active; positive”, the mutagenic call (Test System: AMES SALMONELLA TYPHIMURIUM, Strain/Indicator: TA1535, Metabolic Activation: RAT, LIVER, S-9, AROCLOR 1254, Method: STANDARD PLATE) was “active; positive” and the mutagenic call (Test System: AMES SALMONELLA TYPHIMURIUM, Strain/Indicator: TA1535, Metabolic Activation: S-9, Method: PREINCUBATION) was “active; positive”. The mutagenic call (Test System: AMES SALMONELLA TYPHIMURIUM, Strain/Indicator: TA1537, Metabolic Activation: NONE, Method: STANDARD PLATE) was “inactive; negative”, the mutagenic call (Test System: AMES SALMONELLA TYPHIMURIUM, Strain/Indicator: TA1537, Metabolic Activation: RAT LIVER S-9, PHENOBARBITAL AND BETA-NAPHTHOFLAVONE, Method: PREINCUBATION) was “inactive; negative” and the mutagenic call (Test System: AMES SALMONELLA TYPHIMURIUM, Strain/Indicator: TA1537, Metabolic Activation: RAT, LIVER, S-9, AROCLOR 1254, Method: STANDARD PLATE) was “inactive; negative”. For the same compound, the mutagenic call (Test System: AMES SALMONELLA TYPHIMURIUM, Strain/Indicator: TA1537, Metabolic Activation: S-9, Method: PREINCUBATION) was “inactive; negative”, the mutagenic call (Test System: AMES SALMONELLA TYPHIMURIUM, Strain/Indicator: TA4001, Metabolic Activation: NONE, Method: STANDARD PLATE) was “active; positive” and the mutagenic call (Test System: AMES SALMONELLA TYPHIMURIUM, Strain/Indicator: TA4006, Metabolic Activation: NONE, Method: STANDARD PLATE) was “active; positive”. The mutagenic call (Test System: CHINESE HAMSTER V-79, Strain/Indicator: V-79/6-THIOGUANINE, Metabolic Activation: NONE, Method: FLASK ASSAY) was “inactive; negative”, the mutagenic call (Test System: E. COLI, Strain/Indicator: WP2, Metabolic Activation: NONE, Method: STANDARD PLATE) was “active; positive” and the mutagenic call (Test System: E. COLI, Strain/Indicator: WP2, Metabolic Activation: RAT, LIVER, S-9, AROCLOR 1254, Method: STANDARD PLATE) was “active; positive”. The mutagenic call (Test System: E. COLI, Strain/Indicator: WP2 UVRA, Metabolic Activation: NONE, Method: PREINCUBATION) was “active; positive”, the mutagenic call (Test System: E. COLI, Strain/Indicator: WP2 UVRA, Metabolic Activation: NONE, Method: STANDARD PLATE) was “active; positive” and the mutagenic call (Test System: E. COLI, Strain/Indicator: WP2 UVRA, Metabolic Activation: RAT, LIVER, S-9, AROCLOR 1254, Method: STANDARD PLATE) was “active; positive”. The mutagenic call (Test System: E. COLI, Strain/Indicator: WP2 UVRA, Metabolic Activation: S-9, Method: PREINCUBATION) was “active; positive”, the mutagenic call (Test System: E.COLI, Strain/Indicator: WP2UVRA, Metabolic Activation: NONE, Method: PREINCUBATION) was “active; positive” and the mutagenic call (Test System: E.COLI, Strain/Indicator: WP2UVRA, Metabolic Activation: RAT LIVER S-9, PHENOBARBITAL AND BETA-NAPHTHOFLAVONE, Method: PREINCUBATION) was “active; positive”.
With `[Br][Pb][Br]` the mutagenic call (Test System: AMES SALMONELLA TYPHIMURIUM, Strain/Indicator: TA1535, Metabolic Activation: NONE) was “active; positive” and the mutagenic call (Test System: AMES SALMONELLA TYPHIMURIUM, Strain/Indicator: TA1537, Metabolic Activation: NONE) was “inactive; negative”.
